{"source": "patent US11098038B2", "about": "“Imidazole-based anticancer agents and derivatives thereof, and methods of making and using same” (The University of Toledo, priority 2017, dated 2021)", "assay_type_in_all_cases": "cell-based", "key": {"NCI-322M": {"tested_on": "NCI-322M", "test": "NCI 60 screen, NCI-322M", "conditions": "Homo sapiens, Non-Small Cell Lung", "procedure": "(§1) The compounds synthesized were tested at the National Cancer Institute (NCI) for anti-proliferative activity in the 60 human tumor cell line assay."}, "HT29": {"tested_on": "HT29", "test": "NCI 60 screen, HT29", "conditions": "Homo sapiens, HT-29, Colon", "procedure": "as §1"}, "OVCAR-4": {"tested_on": "OVCAR-4", "test": "NCI 60 screen, OVCAR-4", "conditions": "Homo sapiens, Ovarian", "procedure": "as §1"}, "SW-620": {"tested_on": "SW-620", "test": "NCI 60 screen, SW-620", "conditions": "Homo sapiens, Colon", "procedure": "as §1"}, "RXF393": {"tested_on": "RXF393", "test": "NCI 60 screen, RXF393", "conditions": "Homo sapiens, RXF 393, Renal", "procedure": "as §1"}, "T-47D": {"tested_on": "T-47D", "test": "NCI 60 screen, T-47D", "conditions": "Homo sapiens, T47D, Breast", "procedure": "as §1"}, "SNB-19": {"tested_on": "SNB-19", "test": "NCI 60 screen, SNB-19", "conditions": "Homo sapiens, CNS", "procedure": "as §1"}, "MDA-MB-435": {"tested_on": "MDA-MB-435", "test": "NCI 60 screen, MDA-MB-435", "conditions": "Homo sapiens, Melanoma", "procedure": "as §1"}, "BT-549": {"tested_on": "BT-549", "test": "NCI 60 screen, BT-549", "conditions": "Homo sapiens, Breast", "procedure": "as §1"}, "EKVX": {"tested_on": "EKVX", "test": "NCI 60 screen, EKVX", "conditions": "Homo sapiens, Non-Small Cell Lung", "procedure": "as §1"}, "RPMI-8226": {"tested_on": "RPMI-8226", "test": "NCI 60 screen, RPMI-8226", "conditions": "Homo sapiens, Leukemia", "procedure": "as §1"}, "HCC-2998": {"tested_on": "HCC-2998", "test": "NCI 60 screen, HCC-2998", "conditions": "Homo sapiens, Colon", "procedure": "as §1"}, "NCI/ADR-RES": {"tested_on": "NCI/ADR-RES", "test": "NCI 60 screen, NCI/ADR-RES", "conditions": "Homo sapiens, Ovarian", "procedure": "as §1"}, "NCI-H522": {"tested_on": "NCI-H522", "test": "NCI 60 screen, NCI-H522", "conditions": "Homo sapiens, Non-Small Cell Lung", "procedure": "as §1"}, "LOX IMVI": {"tested_on": "LOX IMVI", "test": "NCI 60 screen, LOX IMVI", "conditions": "Homo sapiens, Melanoma", "procedure": "as §1"}, "MCF7": {"tested_on": "MCF7", "test": "NCI 60 screen, MCF7", "conditions": "Homo sapiens, Breast", "procedure": "as §1"}, "HCT15": {"tested_on": "HCT15", "test": "NCI 60 screen, HCT15", "conditions": "Homo sapiens, HCT-15, Colon", "procedure": "as §1"}, "SF-539": {"tested_on": "SF-539", "test": "NCI 60 screen, SF-539", "conditions": "Homo sapiens, CNS", "procedure": "as §1"}, "MDA-MB-231/ATCC": {"tested_on": "MDA-MB-231/ATCC", "test": "NCI 60 screen, MDA-MB-231/ATCC", "conditions": "Homo sapiens, Breast", "procedure": "as §1"}, "HOP-62": {"tested_on": "HOP-62", "test": "NCI 60 screen, HOP-62", "conditions": "Homo sapiens, Non-Small Cell Lung", "procedure": "as §1"}, "A498": {"tested_on": "A498", "test": "NCI 60 screen, A498", "conditions": "Homo sapiens, Renal", "procedure": "as §1"}, "A549/ATCC": {"tested_on": "A549/ATCC", "test": "NCI 60 screen, A549/ATCC", "conditions": "Homo sapiens, Non-Small Cell Lung", "procedure": "as §1"}, "NCI-460": {"tested_on": "NCI-460", "test": "NCI 60 screen, NCI-460", "conditions": "Homo sapiens, Non-Small Cell Lung", "procedure": "as §1"}, "UACC-257": {"tested_on": "UACC-257", "test": "NCI 60 screen, UACC-257", "conditions": "Homo sapiens, Melanoma", "procedure": "as §1"}, "OVCAR-5": {"tested_on": "OVCAR-5", "test": "NCI 60 screen, OVCAR-5", "conditions": "Homo sapiens, Ovarian", "procedure": "as §1"}, "[1]": {"tested_on": "chromosome alignment, centromeres, and spindle body", "test": "Fluorescence microscopy of chromosome alignment, centromeres and spindle body", "conditions": "FIGS. 8A-8B", "excerpt": "FIGS. 8A-8B: Color images showing effects of compound 25 on chromosome alignment, centromeres, and spindle body. Microtubules that make up the mitotic spindle are detected with an antibody linked to a green fluorophore, which was detected with a fluorescence microscope. Centromeres were detected with a far red fluorophore (they are pseudocolored pink). DNA was detected with Hoechst DNA stain, which is blue.\nIn normal cells (FIG. 8A, upper two panels), chromosomes line up between the spindle poles at metaphase. In cells treated with compound 25 for several hours (FIG. 8A, lower two panels), cells still enter mitosis but centromeres are found all over the cell (not just in the middle between the poles of the spindle). […] However, when ZM is combined with compound 25, what was observed was a very dramatic disruption of spindle architecture. […] Without wishing to be bound by theory, it is believed that both Aurora B and the targets of compound 25 work in parallel to control tubulin function. When either one is inhibited alone, there is no effect since the other pathway compensates. When both are inhibited, the defect is detected."}, "SF-295": {"tested_on": "SF-295", "test": "NCI 60 screen, SF-295", "conditions": "Homo sapiens, CNS", "procedure": "as §1"}, "SK-OV-3": {"tested_on": "SK-OV-3", "test": "NCI 60 screen, SK-OV-3", "conditions": "Homo sapiens, Ovarian", "procedure": "as §1"}, "KM12": {"tested_on": "KM12", "test": "NCI 60 screen, KM12", "conditions": "Homo sapiens, Colon", "procedure": "as §1"}, "SN12C": {"tested_on": "SN12C", "test": "NCI 60 screen, SN12C", "conditions": "Homo sapiens, Renal", "procedure": "as §1"}, "HS 578T": {"tested_on": "HS 578T", "test": "NCI 60 screen, HS 578T", "conditions": "Homo sapiens, Breast", "procedure": "as §1"}, "SR": {"tested_on": "SR", "test": "NCI 60 screen, SR", "conditions": "Homo sapiens, Leukemia", "procedure": "as §1"}, "HCT-116": {"tested_on": "HCT-116", "test": "NCI 60 screen, HCT-116", "conditions": "Homo sapiens, Colon", "procedure": "as §1"}, "DU-145": {"tested_on": "DU-145", "test": "NCI 60 screen, DU-145", "conditions": "Homo sapiens, Prostatic", "procedure": "as §1"}, "OVCAR-8": {"tested_on": "OVCAR-8", "test": "NCI 60 screen, OVCAR-8", "conditions": "Homo sapiens, Ovarian", "procedure": "as §1"}, "HeLa cells": {"tested_on": "HeLa cells", "test": "Mitotic arrest of HeLa cells observed under the microscope", "conditions": "10 μM", "procedure": "FIG. 6: Color images showing untreated HeLa cells used as a control. Mitotic duration: 60 minutes. Each frame was taken after 12 minute intervals. Frame 5 to frame 9 show cells' progression through mitosis.\nFIG. 7: Color images showing HeLa cells treated with 10 μM of compound 25. Mitotic duration: 27.4 hr.\nAlthough developed as HDAC inhibitors, the compounds herein may actually act by multiple mechanisms. […] Snap shots were taken at a 12 minute interval.\nA cell that is rounded up in frame 2 enters mitosis (FIG. 7)."}, "NCI-H23": {"tested_on": "NCI-H23", "test": "NCI 60 screen, NCI-H23", "conditions": "Homo sapiens, Non-Small Cell Lung", "procedure": "as §1"}, "SK-MEL-5": {"tested_on": "SK-MEL-5", "test": "NCI 60 screen, SK-MEL-5", "conditions": "Homo sapiens, Melanoma", "procedure": "as §1"}, "U251": {"tested_on": "U251", "test": "NCI 60 screen, U251", "conditions": "Homo sapiens, U-251, CNS", "procedure": "as §1"}, "UACC-62": {"tested_on": "UACC-62", "test": "NCI 60 screen, UACC-62", "conditions": "Homo sapiens, Melanoma", "procedure": "as §1"}}}
{"molecule": "O=C(Cc1ccc(/C=C/C(=O)c2ncc[nH]2)cc1)Nc1ccc(Cl)cc1", "note": "[Compound 25, (E)-2-(-4 (3-(1H-imidazol-2-yl)-3-oxoprop-1-en-1-yl)phenyl)-N-(4-chlorophenyl)acetamide]", "values": [{"measurement": "GI50", "setting": "NCI-322M", "result": 4, "unit": "µM"}, {"measurement": "GI50", "setting": "HT29", "result": 0.886, "unit": "µM"}, {"measurement": "GI50", "setting": "OVCAR-4", "result": 4.11, "unit": "µM"}, {"measurement": "GI50", "setting": "SW-620", "result": 1.43, "unit": "µM"}, {"measurement": "GI50", "setting": "RXF393", "result": 3.05, "unit": "µM"}, {"measurement": "GI50", "setting": "T-47D", "result": 3.24, "unit": "µM"}, {"measurement": "GI50", "setting": "SNB-19", "result": 2.32, "unit": "µM"}, {"measurement": "GI50", "setting": "MDA-MB-435", "result": 4.14, "unit": "µM"}, {"measurement": "GI50", "setting": "BT-549", "result": 3.46, "unit": "µM"}, {"measurement": "GI50", "setting": "EKVX", "result": 5.68, "unit": "µM"}, {"measurement": "GI50", "setting": "RPMI-8226", "result": 0.857, "unit": "µM"}, {"measurement": "GI50", "setting": "HCC-2998", "result": 3.73, "unit": "µM"}, {"measurement": "GI50", "setting": "NCI/ADR-RES", "result": 5.02, "unit": "µM"}, {"measurement": "GI50", "setting": "NCI-H522", "result": 2.6, "unit": "µM"}, {"measurement": "GI50", "setting": "LOX IMVI", "result": 0.87, "unit": "µM"}, {"measurement": "GI50", "setting": "MCF7", "result": 0.742, "unit": "µM"}, {"measurement": "GI50", "setting": "HCT15", "result": 0.879, "unit": "µM"}, {"measurement": "GI50", "setting": "SF-539", "result": 3.33, "unit": "µM"}, {"measurement": "GI50", "setting": "MDA-MB-231/ATCC", "result": 4.27, "unit": "µM"}, {"measurement": "GI50", "setting": "HOP-62", "result": 3.19, "unit": "µM"}, {"measurement": "GI50", "setting": "A498", "result": 5.48, "unit": "µM"}, {"measurement": "GI50", "setting": "A549/ATCC", "result": 6.9, "unit": "µM"}, {"measurement": "GI50", "setting": "NCI-460", "result": 3.43, "unit": "µM"}, {"measurement": "GI50", "setting": "UACC-257", "result": 7.24, "unit": "µM"}, {"measurement": "GI50", "setting": "OVCAR-5", "result": 3.3, "unit": "µM"}, {"measurement": "Spindle body / spindle architecture", "setting": "[1]", "result": "the spindle body remained intact"}, {"measurement": "Chromosome alignment / centromere position", "setting": "[1]; cells treated for several hours", "result": "chromosomes were misaligned"}, {"measurement": "GI50", "setting": "SF-295", "result": 3.33, "unit": "µM"}, {"measurement": "GI50", "setting": "SK-OV-3", "result": 9.74, "unit": "µM"}, {"measurement": "GI50", "setting": "KM12", "result": 1.3, "unit": "µM"}, {"measurement": "GI50", "setting": "SN12C", "result": 2.4, "unit": "µM"}, {"measurement": "GI50", "setting": "HS 578T", "result": 18.8, "unit": "µM"}, {"measurement": "GI50", "setting": "SR", "result": 0.798, "unit": "µM"}, {"measurement": "GI50", "setting": "HCT-116", "result": 0.848, "unit": "µM"}, {"measurement": "GI50", "setting": "DU-145", "result": 1.7, "unit": "µM"}, {"measurement": "GI50", "setting": "OVCAR-8", "result": 3.65, "unit": "µM"}, {"measurement": "Fate of arrested cells", "setting": "HeLa cells", "result": "eventually underwent apoptosis"}, {"measurement": "Mitotic arrest (progress through cell division)", "setting": "HeLa cells; monitored for over 27.4 hours", "result": "did not proceed with cell division"}, {"measurement": "Mitotic duration", "setting": "HeLa cells; untreated control 60 minutes", "result": 27.4, "unit": "h"}, {"measurement": "GI50", "setting": "NCI-H23", "result": 2.97, "unit": "µM"}, {"measurement": "GI50", "setting": "SK-MEL-5", "result": 6.17, "unit": "µM"}, {"measurement": "GI50", "setting": "U251", "result": 1.02, "unit": "µM"}, {"measurement": "GI50", "setting": "UACC-62", "result": 3.94, "unit": "µM"}]}
